Test results published in PMC11459959, “Discovery of new acetamide derivatives of 5-indole-1,3,4-oxadiazol-2-thiol as inhibitors of HIV-1 Tat-mediated viral transcription” (Antimicrobial Agents and Chemotherapy, 2024).

Columns and labels:
CDK9/Cyclin T = target: T1, CDK9/Cyclin T (Homo sapiens, UniProt P50750); assay: CDK9/Cyclin T kinase assay; type: biochemical; conditions: in vitro kinase kit, serial dilutions
T1 construct: purchased BPS Bioscience
Description: In brief, 12.5 µL of the Master Mix (Kinase Assay Buffer 1 supplemented with ATP and CDK Substrate Peptide 2) was mixed with 2.5 µL of each test compound diluted serially. The mixture was then mixed with CDK9/Cyclin T Kinase (50 ng/10 µL diluted in 1× Kinase Assay Buffer 1) and incubated for 45 min. The kinase activity was measured using Kinase-Glo Max (Promega). A decreased level of luminescence relative to ATP concentration indicated kinase activity, which was expressed as the percent of DMSO control.

[1] = test system: PI-resistant HIV-1 strain 11803; assay: microbe, parasite or virus in culture; type: cell-based; conditions: Human immunodeficiency virus 1, PBMC
Excerpt: (§1) The Tzm-bl-derived dual Tat reporter; TZM-bl/Tat/Rluc (bl-DTR) cells were established from TZM-bl cells using two Dox-inducible lentiviral expression cassettes cloned with Flag-tagged Tat86 and the R-Luc gene, as described in our previous study ([11]). TZM-bl, A3.01, J1.1, and J-Lat 6.3 cells as well as the HIV-1 molecular clone pNL4-3, pNL(AD8), ARV-resistant HIV-1 strains, and HIV-1NL43-IRES-eGFP (pBR43IeG-nef^+, gifted by Dr. Frank Kirchhoff) ([52]) were provided by the National Institute of Health HIV Reagent Program (NIH, Bethesda, MD, USA). HeLa (CCL-2) and 293T (CRL-3216) cell lines were purchased from the American Type Culture Collection (ATCC, Manassas, VA, USA). The bl-DTR, TZM-bl, HeLa, and 293T cells were cultured in Dulbecco’s modified Eagle’s medium supplemented with 1% penicillin–streptomycin and 10% (vol/vol) heat-inactivated fetal bovine serum (all from Gibco-BRL, Gaithersburg, MD, USA), and 1 µg/mL of puromycin and 200 µg/mL of zeocin were additionally supplemented for the bl-DTR cells. PBMCs were purchased from AllCells (Alameda, CA, USA) and cultured as previously described ([12]). The information on ARV-resistant HIV-1 strains was described in previous reports as follows: NNRTI-resistant 12241 and 12243 ([53]); NRTI-resistant 7396, 7406, and 7407 ([54]); INSTI-resistant 11847 and 11849 ([55], [56]); and PI-resistant 11800 and 11803 ([57]). Each molecular HIV-1 clone was transfected to 293T cells, as previously described ([58]), to obtain infectious HIV-1 particles. Virus-containing cell culture supernatants were collected 3 days after transfection, and filtered through a 0.45-µm membrane filter (Millipore Sigma, Burlington, MA, USA) to remove cell debris. The viral titration was performed as described previously ([59]) with some minor modifications. In brief, 1 × 10^4 TZM-bl cells seeded in 96-well plates were infected with 200 µL of virus-containing medium diluted serially twofold. The incubation was for 2 days and the experiment was performed in triplicate; the infection time minimized the virus spread ([59]). The titration of the infectious viral particles was performed with a ß-Gal staining assay using the ßeta-Galactosidase Staining Kit (Mirus Bio, Madison, WI, USA) following the manufacturer’s protocols. In brief, the infected cells were washed with phosphate-buffered saline (PBS) and fixed using a Cell Fixative Working solution. The cells were washed with PBS and stained using the Cell Staining Working Solution containing X-gal. The infected blue-colored cells were counted under a microscope (100× magnification). The infectious virus titer was determined as a mean value of blue-colored cells count × dilution factor and used for determining the multiplicity of infection (MOI) in each infection experiment.
(§2) The inhibitory effects of the compounds on viral replication were determined with some minor modifications, as previously described ([12], [62]). […] PBMCs (4 × 10^5) pre-activated with PHA-M for 3 days were washed with fresh media to remove excess PHA-M and subsequently infected with HIV-1NL4-3 or HIV-1AD8 or PIs-resistant HIV-1 strains as A3.01 infection. After infection, the infectious media were replaced with fresh media supplemented with international 10 units (IU)/mL of IL-2 and the indicated compounds. At 72 h after infection, the inhibitory effect of the compounds on viral replication was determined by measuring the p24 amount, an HIV capsid protein, using an HIV-1 p24 […] kit (PerkinElmer, Waltham, MA, USA). Cell viability was determined as described above. The inhibitory effects on provirus reversing in J1.1 and J-Lat 6.3 cells were determined as previously described ([12], [41], [63]) with some minor modifications.

[2] = test system: PI-resistant HIV-1 strain 11800; assay: microbe, parasite or virus in culture; type: cell-based; conditions: Human immunodeficiency virus 1, PBMC
Excerpt: as §1, §2

T1 sequence (P50750 whole entry): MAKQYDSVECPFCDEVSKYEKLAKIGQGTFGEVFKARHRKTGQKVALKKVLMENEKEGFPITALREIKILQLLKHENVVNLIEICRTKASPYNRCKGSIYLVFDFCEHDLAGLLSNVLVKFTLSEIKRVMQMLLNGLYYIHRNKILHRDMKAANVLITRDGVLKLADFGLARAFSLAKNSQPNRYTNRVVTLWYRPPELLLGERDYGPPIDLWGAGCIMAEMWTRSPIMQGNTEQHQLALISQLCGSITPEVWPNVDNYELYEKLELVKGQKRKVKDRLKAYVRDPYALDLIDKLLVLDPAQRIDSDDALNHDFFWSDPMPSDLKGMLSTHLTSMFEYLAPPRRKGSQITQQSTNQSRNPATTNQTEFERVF
T1 sequence (O60563 whole entry partner): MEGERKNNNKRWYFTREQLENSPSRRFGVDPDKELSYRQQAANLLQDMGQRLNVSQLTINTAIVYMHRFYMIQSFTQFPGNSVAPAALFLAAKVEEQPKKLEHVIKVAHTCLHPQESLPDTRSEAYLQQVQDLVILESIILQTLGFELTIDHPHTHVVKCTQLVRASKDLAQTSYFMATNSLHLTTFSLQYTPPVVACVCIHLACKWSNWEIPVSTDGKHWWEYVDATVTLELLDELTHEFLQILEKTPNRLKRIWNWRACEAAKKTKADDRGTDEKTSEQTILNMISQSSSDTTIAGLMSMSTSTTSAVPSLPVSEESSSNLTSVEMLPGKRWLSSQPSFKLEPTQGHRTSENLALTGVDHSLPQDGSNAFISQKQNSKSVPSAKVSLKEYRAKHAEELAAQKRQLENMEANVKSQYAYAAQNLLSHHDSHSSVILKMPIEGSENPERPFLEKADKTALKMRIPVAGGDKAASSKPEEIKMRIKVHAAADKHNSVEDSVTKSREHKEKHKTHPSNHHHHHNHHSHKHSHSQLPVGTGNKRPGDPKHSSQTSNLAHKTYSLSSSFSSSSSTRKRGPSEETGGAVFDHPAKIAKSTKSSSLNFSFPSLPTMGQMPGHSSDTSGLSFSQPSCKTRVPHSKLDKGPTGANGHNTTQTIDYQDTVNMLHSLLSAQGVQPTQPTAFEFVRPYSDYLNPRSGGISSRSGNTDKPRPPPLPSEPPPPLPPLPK

Row | Structure (SMILES) | inhibition of CDK9/Cyclin T kinase activity (CDK9/Cyclin T) | EC50 [1] [nM] | EC50 [2] [nM]
1 | Cc1[nH]c2ccc(-c3nnc(SCC(=O)N4CCCC4)o3)cc2c1C [Compound 13, 2-((5-(2,3-Dimethyl-1H-indol-5-yl)-1,3,4-oxadiazol-2-yl)thio)-1-(pyrrolidin-1-yl)ethan-1-one] | did not exhibit | 280 ± 40 | 810 ± 30
2 | Cc1[nH]c2ccc(-c3nnc(SCC(=O)N4CCCCC4)o3)cc2c1C [Compound 9, 2-((5-(2,3-Dimethyl-1H-indol-5-yl)-1,3,4-oxadiazol-2-yl)thio)-1-(piperidin-1-yl)ethan-1-one] | did not exhibit | 260 ± 80 | 540 ± 250
